In patent publication US20130197036A1, “TRANSDERMAL ABSORPTION PREPARATION” (priority 2010, published 2013):

Legend:
[1] = Octanol/water partition coefficient; format: physicochemical; conditions: in the range of pH 3 to 9
Excerpt: However, the octanol/water partition coefficient of compound A in the range of pH 3 to 9 is less than 0.05, which greatly differs from the partition coefficient (100 to 1000) of a compound generally having high membrane permeability. Compound A tends to be difficult to permeate through a membrane. Thus, it is difficult to provide a transdermal preparation comprising compound A or a salt thereof and having transdermal absorbability sufficient to exert a pharmacological effect. A transdermal preparation of compound A or a salt thereof is not known.

[2] = test system: fungi, azole antifungal agent-resistant fungi; conditions: Patent Document 1; cited from earlier work

With `N=C(N)c1ccc(OCCCC2CCN(CCCOc3ccc(C(=N)N)cc3)CC2)cc1` [compound A, 4-{3-[4-(3-{4-[Amino(imino)methyl]phenoxy}propyl)-1-piperidinyl]propoxy}benzamidine] as the compound, how does the octanol/water partition coefficient [1] read?
Its octanol/water partition coefficient is “less than 0.05”.

What about the “antifungal activity (in words)” value [2] of the same compound?
The value was “strong antifungal activity”.
